Square brackets hold non-standard residues; d marks the D form. Peptide text beside a SMILES is read from it. ξ: configuration not given here. Ile(3ξ) = CCC(C)[C@H](N)C(=O)O
biological target: T1, Pituitary adenylate cyclase-activating polypeptide (Rattus norvegicus, UniProt P13589)
T1 sequence (P13589 whole entry): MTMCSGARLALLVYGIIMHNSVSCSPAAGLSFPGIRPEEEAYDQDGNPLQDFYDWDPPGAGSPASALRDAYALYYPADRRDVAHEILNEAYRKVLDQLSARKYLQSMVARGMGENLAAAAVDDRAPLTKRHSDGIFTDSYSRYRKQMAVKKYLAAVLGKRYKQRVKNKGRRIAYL

Compared with `Nc1nc2c(ncn2[C@@H]2O[C@H](COP(=O)(O)OP(=O)(O)OP(=O)(O)O)C(O)C2O)c(=O)[nH]1` (stereo partly specified) [+ 1 mM GTP], `CC[C@H](C)[C@H](NC(=O)[C@H](CO)NC(=O)[C@H](CC(N)=O)NC(=O)[C@H](CC(C)C)NC(=O)[C@H](Cc1ccc(O)cc1)NC(=O)[C@H](CCCCN)NC(=O)[C@H](CCCCN)NC(=O)[C@@H](NC(=O)[C@H](C)NC(=O)[C@H](CCSC)NC(=O)[C@H](CCC(N)=O)NC(=O)[C@H](CCCCN)NC(=O)[C@H](CCCN=C(N)N)NC(=O)[C@H](CC(C)C)NC(=O)[C@H](CCCN=C(N)N)NC(=O)[C@@H](NC(=O)[C@H](Cc1ccc(O)cc1)NC(=O)[C@H](CC(N)=O)NC(=O)[C@H](CC(=O)O)NC(=O)[C@@H](NC(=O)[C@H](Cc1ccccc1)NC(=O)[C@@H](NC(=O)[C@H](C)NC(=O)[C@H](CC(=O)O)NC(=O)[C@H](CO)NC(=O)[C@@H](N)Cc1cnc[nH]1)C(C)C)[C@@H](C)O)[C@@H](C)O)C(C)C)C(=O)N[C@@H](CC(C)C)C(=O)N[C@@H](CC(N)=O)C(=O)O` [CAS_37221-79-7] is 1.7-fold higher in Ki: 600 nM for the first, 1000 nM for the second.

First: Nc1nc2c(ncn2C2OC(COP(=O)(O)OP(=O)(O)OP(=O)(O)S)C(O)C2O)c(=O)[nH]1 (stereo unspecified) [CAS_444121]
Second: Nc1nc2c(ncn2[C@H]2O[C@@H](COP(=O)(O)O)[C@H](O)[C@@H]2O)c(=O)[nH]1 [NSC_6804]
The Ki of the first is lower: 40 nM for the first, > 10000 nM for the second. The first binds more tightly here.

First: Nc1nc2c(ncn2C2OC(COP(O)(=S)OP(=O)(O)O)C(O)C2O)c(=O)[nH]1 (stereo unspecified) [NSC_196042]
Second: CC[C@H](C)[C@H](NC(=O)CNC(=O)[C@H](CC(=O)O)NC(=O)[C@H](CO)NC(=O)[C@@H](N)Cc1cnc[nH]1)C(=O)N[C@@H](Cc1ccccc1)C(=O)N[C@H](C(=O)N[C@@H](CC(=O)O)C(=O)N[C@@H](CO)C(=O)N[C@@H](Cc1ccc(O)cc1)C(=O)N[C@@H](CO)C(=O)N[C@@H](CCCN=C(N)N)C(=O)N[C@@H](Cc1ccc(O)cc1)C(=O)N[C@@H](CCCN=C(N)N)C(=O)N[C@@H](CCCCN)C(=O)N[C@@H](CCC(N)=O)C(=O)N[C@@H](CCSC)C(=O)N[C@@H](C)C(=O)N[C@H](C(=O)N[C@@H](CCCCN)C(=O)N[C@@H](CCCCN)C(=O)N[C@@H](Cc1ccc(O)cc1)C(=O)N[C@@H](CC(C)C)C(N)=O)C(C)C)[C@@H](C)O [PACAP(1-23)]
The Ki of the first is 2.9-fold lower: 340 nM for the first, 1000 nM for the second. The first binds more tightly here.

`CC[C@H](C)[C@H](NC(=O)CNC(=O)[C@H](CCC(=O)O)NC(=O)[C@H](CO)NC(=O)[C@@H](N)Cc1cnc[nH]1)C(=O)N[C@@H](Cc1ccccc1)C(=O)N[C@H](C(=O)N[C@@H](CC(=O)O)C(=O)N[C@@H](CO)C(=O)N[C@@H](Cc1ccc(O)cc1)C(=O)N[C@@H](CO)C(=O)N[C@@H](CCCNC(=N)N)C(=O)N[C@@H](Cc1ccc(O)cc1)C(=O)N[C@@H](CCCNC(=N)N)C(=O)N[C@@H](CCCCN)C(=O)N[C@@H](CCC(N)=O)C(=O)N[C@@H](CCSC)C(=O)N[C@@H](C)C(=O)N[C@H](C(=O)N[C@@H](CCCCN)C(=O)N[C@@H](CCCCN)C(=O)N[C@@H](Cc1ccc(O)cc1)C(=O)N[C@@H](CC(C)C)C(=O)N[C@@H](C)C(=O)N[C@@H](C)C(=O)N[C@H](C(=O)N[C@@H](CC(C)C)C(N)=O)C(C)C)C(C)C)[C@@H](C)O` [PACAP(1-27)] and `CCC(C)[C@H](NC(=O)CNC(=O)[C@H](CC(=O)O)NC(=O)[C@H](CO)NC(=O)[C@@H](N)Cc1cnc[nH]1)C(=O)N[C@@H](Cc1ccccc1)C(=O)N[C@H](C(=O)N[C@@H](CC(=O)O)C(=O)N[C@@H](CO)C(=O)N[C@@H](Cc1ccc(O)cc1)C(=O)N[C@@H](CO)C(=O)N[C@@H](CCCN=C(N)N)C(=O)N[C@@H](Cc1ccc(O)cc1)C(=O)N[C@@H](CCCN=C(N)N)C(=O)N[C@@H](CCCCN)C(=O)N[C@@H](CCC(N)=O)C(=O)N[C@@H](CCSC)C(=O)N[C@@H](C)C(=O)N[C@H](C(=O)N[C@@H](CCCCN)C(=O)N[C@@H](CCCCN)C(=O)N[C@@H](Cc1ccc(O)cc1)C(=O)N[C@@H](CC(C)C)C(=O)N[C@@H](C)C(=O)N[C@@H](C)C(=O)N[C@H](C(=O)N[C@@H](CC(C)C)C(=O)NCC(=O)N[C@@H](CCCCN)C(=O)N[C@@H](CCCN=C(N)N)C(=O)N[C@@H](Cc1ccc(O)cc1)C(=O)N[C@@H](CCCCN)C(=O)N[C@@H](CCC(N)=O)C(=O)N[C@@H](CS)C(N)=O)C(C)C)C(C)C)[C@@H](C)O` (stereo partly specified) [PACAP(1-33,Cys34)] are within 1.5-fold of each other in Ki: 4.7 nM for the first, 6.4 nM for the second.

First: CCC(C)[C@H](NC(=O)CNC(=O)[C@@H](N)CC(=O)O)C(=O)N[C@@H](Cc1ccccc1)C(=O)N[C@H](C(=O)N[C@@H](CC(=O)O)C(=O)N[C@@H](CO)C(=O)N[C@@H](Cc1ccc(O)cc1)C(=O)N[C@@H](CO)C(=O)N[C@@H](CCCN=C(N)N)C(=O)N[C@@H](Cc1ccc(O)cc1)C(=O)N[C@@H](CCCN=C(N)N)C(=O)N[C@@H](CCCCN)C(=O)N[C@@H](CCC(N)=O)C(=O)N[C@@H](CCSC)C(=O)N[C@@H](C)C(=O)N[C@H](C(=O)N[C@@H](CCCCN)C(=O)N[C@@H](CCCCN)C(=O)N[C@@H](Cc1ccc(O)cc1)C(=O)N[C@@H](CC(C)C)C(=O)N[C@@H](C)C(=O)N[C@@H](C)C(N)=O)C(C)C)[C@@H](C)O (stereo partly specified) [PACAP(3-25)] (H-DG[Ile(3ξ)]FTDSYSRYRKQMAVKKYLAA-NH2)
Second: CC[C@H](C)[C@H](NC(=O)CNC(=O)[C@H](CC(=O)O)NC(=O)[C@H](CO)NC(=O)[C@@H](N)Cc1cnc[nH]1)C(=O)N[C@@H](Cc1ccccc1)C(=O)N[C@H](C(=O)N[C@@H](CC(=O)O)C(=O)N[C@@H](CO)C(=O)N[C@@H](Cc1ccc(O)cc1)C(=O)N[C@@H](CO)C(=O)N[C@@H](CCCNC(=N)N)C(=O)N[C@@H](Cc1ccc(O)cc1)C(=O)N[C@@H](CCCNC(=N)N)C(=O)N[C@@H](CCCCN)C(=O)N[C@@H](CCC(N)=O)C(=O)N[C@@H](CCSC)C(=O)N[C@@H](C)C(=O)N[C@H](C(=O)N[C@@H](CCCCN)C(=O)N[C@@H](CCCCN)C(=O)N[C@@H](Cc1ccc(O)cc1)C(=O)N[C@@H](CC(C)C)C(=O)N[C@@H](C)C(=O)N[C@@H](C)C(=O)N[C@H](C(=O)N[C@@H](CC(C)C)C(=O)NCC(=O)N[C@@H](CCCCN)C(=O)N[C@@H](CCCNC(=N)N)C(=O)N[C@@H](Cc1ccc(O)cc1)C(=O)N[C@@H](CCCCN)C(=O)N[C@@H](CCC(N)=O)C(=O)N[C@@H](CCCNC(=N)N)C(=O)N[C@H](C(=O)N[C@@H](CCCCN)C(=O)N[C@@H](CC(N)=O)C(=O)N[C@@H](CCCCN)C(N)=O)C(C)C)C(C)C)C(C)C)[C@@H](C)O [PACAP]
The Ki of the first is 530-fold higher: 1000 nM for the first, 1.9 nM for the second.

Compound “H-HSDGIFTDSYSRYRKQMAVKKYLNSILN-NH2 [PACAP(1-23),VIP(24-28)]” has a Ki of 3.1 nM.
